Reference: publication PMC13427755 (Nature Communications, 2026)
Where a SMILES comes first, the peptide text is derived from it.

How the values were obtained:
[1] = system: collagen type 1 alpha chain 1 (COL1A1); test: COL1A1 ELISA in deep bronchial brushings (DBB); format: in vivo, human; settings: for COL1A1 in DBB, Δ from baseline, median (IQR): Day 14 minus screening
Description: (§1) Bronchoscopists were instructed to obtain a total of 6 brushings from 3 of the basilar bronchial segments of the right lower lobe: the anterior basilar segment, the lateral basilar segment, and the posterior basilar segment. With the bronchoscope proximal to or within the orifice of the appropriate basilar segment, the brush sheath was to be passed out 5 cm beyond the subsegment orifice, and then the brush was fully extended an additional 1 cm for a total of 6 cm beyond the orifice of the subsegmental bronchus. At the desired depth, the sheath was to be gently pulled back and forward for 15 strokes to brush the small airways. The brushing process was repeated using any combination of the 3 basilar segments described above, at the discretion of the bronchoscopist, for a total of 6 six separate brush samples.
(§2) Protein isolation and preparation of DBB samples for ELISAs were performed as previously described[47] according to manufacturer’s instructions for COL1A1 (#ab210966, abcam), CXCL7 (#LS-F4967-1, LS Bio), GAL7 (#DY1339, R&D Systems), IL-11 (#DY218, R&D Systems), and TSLP (#DY1398, R&D Systems).
(§3) Descriptive statistics are reported as medians with interquartile ranges (IQR). The Hodges-Lehmann estimator was used for the median difference between groups (treatment minus placebo), with approximate 90% confidence intervals (asymmetric, exact level varied slightly with small n). Cliff’s delta was calculated as effect size using the formula δ = (2U / (n1 × n2)) − 1, with thresholds: |δ | <0.3 small effect, 0.3–0.5 medium effect, >0.5 large effect. […] No adjustment for multiplicity was performed, as these were pre-specified, hypothesis-driven exploratory analyses. All biomarker statistical analyses were conducted using GraphPad Prism Version v10.0.

[2] = system: thymic stromal lymphopoietin (TSLP); test: TSLP ELISA in deep bronchial brushings (DBB); format: in vivo, human; settings: for TSLP in DBB, Δ from baseline, median (IQR): Day 14 minus screening
Description: as §1, §2, §3

[3] = system: Sprague Dawley rats; settings: 28-day GLP inhalation study, delivered doses 18.4, 58.5 and 109.3 mg/kg/day, ref Investigator Brochure (IB); cited from earlier work
Procedure: (§4) Pivotal 28-day Good Laboratory Practice (GLP) toxicity studies were performed in rats and dogs. These studies were designed such that the high dose levels would achieve at least a 50-fold margin over the proposed high clinical dose as recommended in International Council for Harmonisation (ICH)-M3(R2) guidelines.

[4] = system: dog; settings: 28-day GLP study, delivered doses 8.9, 27.1 and 46.1 mg/kg/day, ref Investigator Brochure (IB); cited from earlier work
Procedure: as §4

[5] = system: galectin-7 (GAL-7); test: GAL7 ELISA in deep bronchial brushings (DBB); format: in vivo, human; settings: for GAL7 in DBB, Δ from baseline, median (IQR): Day 14 minus screening
Description: as §1, §2, §3

[6] = system: participants with IPF; design: species or system human; settings: in vivo
Procedure: Safety and tolerability assessments were performed through treatment and follow-up and included evaluation of TEAEs, concomitant medications, physical examinations, vital signs, 12-lead ECGs, clinical laboratory assessments, spirometry, and cough symptoms using the validated LCQ[22] and a cough VAS. Spirometry was performed according to American Thoracic Society (ATS) / European Respiratory Society (ERS) Task Force guidelines[46] at all clinic visits, with assessments conducted both pre-and post-dose on study drug dosing days. Study staff monitored participants’ self-administration of the study drug (the morning dose) during on-site visits, and symptoms were monitored for at least 1h. […]
Exploratory biomarkers will be assessed in peripheral blood cells (as feasible), platelet rich plasma, BALF, BA samples, and deep bronchial brushings as outlined in Table 3. […]
LCQ total score is equal to the sum of the domain scores (total score range from 3 to 21) with a lower score indicating greater impairment of health status due to cough . […] If a response is not provided to a question, the domain score will be calculated as the average of the scores to the answered questions within the domain. If a subject responds to less than 80% of questions in a domain, the LCQ domain score will not be calculated and will be treated as missing during analysis. […]

[7] = protocol, section 1.1.1.1; cited from earlier work
Description: […]. "Antifibrotic therapy for idiopathic pulmonary fibrosis: time to treat." Respiratory research 20.1 (2019) ...

[8] = 5 mg/day, N = 8 vs pooled placebo N = 6, one-tailed Mann-Whitney p = 0.0709

## CC(C)[C@H](NC(=O)[C@@H](NC(=O)[C@H](Cc1ccccc1)NC(=O)[C@@H](NC(=O)[C@@H](NC(=O)[C@@H](N)Cc1ccccc1)[C@@H](C)O)[C@@H](C)O)[C@@H](C)O)C(=O)N[C@H](C(=O)O)[C@@H](C)O [LTI-03] (H-FTTFTVT-OH; N-terminus and C-terminus assumed)
[1]; 5 mg/day, N = 8
  COL1A1 in DBB, Δ from baseline, median (IQR): 0.16 pg/mg protein
[1]; [8]
  COL1A1 in DBB, median difference vs placebo (Hodges-Lehmann): −3.486 pg/mg protein
[1]; 10 mg/day, N = 9
  COL1A1 in DBB, Δ from baseline, median (IQR): −11.9 pg/mg protein
[1]; 10 mg/day, N = 9 vs pooled placebo N = 6, one-tailed Mann-Whitney p = 0.0248
  COL1A1 in DBB, median difference vs placebo (Hodges-Lehmann): −20.95 pg/mg protein
[2]; 5 mg/day, N = 7
  TSLP in DBB, Δ from baseline, median (IQR): −2.106 pg/mg protein
[2]; 5 mg/day, N = 7 vs pooled placebo N = 6, one-tailed Mann-Whitney p = 0.0256
  TSLP in DBB, median difference vs placebo (Hodges-Lehmann): −19.66 pg/mg protein
[2]; 10 mg/day, N = 9
  TSLP in DBB, Δ from baseline, median (IQR): −2.09 pg/mg protein
[2]; 10 mg/day, N = 9 vs pooled placebo N = 6, one-tailed Mann-Whitney p = 0.0128
  TSLP in DBB, median difference vs placebo (Hodges-Lehmann): −19.07 pg/mg protein
[3]
  no observed adverse effect level (NOAEL), achieved delivered dose: 109.3 mg/kg/day
[4]
  no observed adverse effect level (NOAEL), achieved delivered dose: 46.1 mg/kg/day
[5]; 5 mg/day, N = 8
  GAL7 in DBB, Δ from baseline, median (IQR): 250.8575 pg/mg protein
[5]; [8]
  GAL7 in DBB, median difference vs placebo (Hodges-Lehmann): −4730 pg/mg protein
[5]; 10 mg/day, N = 9
  GAL7 in DBB, Δ from baseline, median (IQR): −726.395 pg/mg protein
[5]; 10 mg/day, N = 9 vs pooled placebo N = 6, one-tailed Mann-Whitney p = 0.0332
  GAL7 in DBB, median difference vs placebo (Hodges-Lehmann): −6048 pg/mg protein
[6]
  change in LCQ total score during the treatment period: No clinically significant changes
  change in cough VAS during the treatment period: No clinically significant changes
[7]
  solubility in water: limited solubility
